From paper PMC9718554, “Discovery of a fragment hit compound targeting D-Ala:D-Ala ligase of bacterial peptidoglycan biosynthesis” (Journal of Enzyme Inhibition and Medicinal Chemistry, 2022)

Columns and labels:
[1] = target: T1, E. coli DdlB enzyme (D-alanine:D-alanine ligase) (Escherichia coli, UniProt P07862); test: biochemical; details: 700 μM D-Ala, 100 μM ATP; read-out: DdlB inhibition IC50
T1 construct: made in house; host or cells: E. coli

DdlB from E. coli = target: T2, DdlB from E. coli (Escherichia coli, UniProt P07862); test: Steady-state kinetics, Ki determination against DdlB (ATP varied); type: biochemical
T2 construct: made in house; host or cells: E. coli
Protocol: Binding of 3 to DdlB was confirmed by an orthogonal biophysical assay, surface plasmon resonance (SPR). The protein was covalently attached to the surface of the CM5 chip (∼7700 response units), and the ligand was titrated across the surface (Figure 2(B)). […] Steady-state kinetics were performed to gain mechanistic insight into the inhibition of compound 3 (Supplementary Figure S3 and Table S6).
For compound 3, Ki values were determined against DdlB from E. coli. Ki determinations were performed under similar conditions as described for DdlB inhibition assay, where different concentration of one substrate and fixed concentration of the other were used. The concentration of ATP (50, 100, 200, 300 and 500 µM) was varied at fixed concentration of D-Ala (700 µM). The concentrations of compound 3 were 0, 25, 50, 100, 250, 500, and 1000 µM. After 20 min of incubation, […] of Biomol® green reagent was added, and absorbance was read at 650 nm after 5 min. Initial data were fitted to competitive, (v/V = [S]/{KM(1 + [I]/KI)+ [S]}), non-competitive (v/V = [S]/{(1 + [I]/KI)(KM+ [S])}), uncompetitive (v/V = [S]/{KM+ [S](1 + [I]/KI)}) inhibition models in which v is observed reaction rate, V is the maximum rate, KM is the Michaelis constant, using SigmaPlot 12.0 software. The best fit was taken as the one having the highest R^2, the lowest standard error and the narrowest 95% confidence interval in each parameter (see Supplementary Table S6).

[2] = target: E. coli MurA enzyme (UDP-N-acetylglucosamine enolpyruvyl transferase) (Escherichia coli, UniProt P0A749); test: MurA inhibition assay (malachite green, deselection); details: read-out: MurA inhibition, RA (Residual Activity)
Chain of E. coli MurA enzyme (UDP-N-acetylglucosamine enolpyruvyl transferase) (P0A749 whole entry): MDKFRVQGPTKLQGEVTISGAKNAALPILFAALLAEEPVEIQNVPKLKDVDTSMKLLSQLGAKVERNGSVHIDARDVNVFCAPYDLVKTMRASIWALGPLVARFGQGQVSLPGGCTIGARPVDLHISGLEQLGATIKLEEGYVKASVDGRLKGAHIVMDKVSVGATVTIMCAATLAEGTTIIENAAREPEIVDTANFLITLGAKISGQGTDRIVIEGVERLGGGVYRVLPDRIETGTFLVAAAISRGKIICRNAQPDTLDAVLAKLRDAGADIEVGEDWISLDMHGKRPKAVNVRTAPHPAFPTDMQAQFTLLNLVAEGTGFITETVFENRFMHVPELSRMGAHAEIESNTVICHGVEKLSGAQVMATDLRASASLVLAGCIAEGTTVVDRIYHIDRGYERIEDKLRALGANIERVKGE
Protocol: Inhibition of the enzyme was determined using an end-point malachite green assay by detecting the orthophosphate formed during the enzymatic reaction. […] The final DMSO concentration was 5%. […] A parallel experiment without the enzyme was performed to detect insoluble compounds under the assay conditions and subtracted from each measurement. All experiments were performed in duplicates. RAs were calculated with respect to blank experiments without tested compounds and with 5% DMSO.

E. coli D22 = test: MIC by broth microdilution; type: cell-based; details: Escherichia coli, D22, 20 h
Protocol: (§1) The antibacterial activities of 3 were determined according to the European Committee for […] Susceptibility Testing recommendations and Clinical Laboratory Standards Institute protocol. Compound was tested against reference strains of E. coli and Staphylococcus aureus and against two mutant E. coli strains. E. coli D22 bears a mutation in the LpxC gene that increases membrane permeability, whereas E. coli N43 is an AcrA knockout strain (knockout of the cell membrane pump). […] The most plausible reason is the low on target activity of the hit fragment, however, also the poor penetration into the bacterial cell or efflux pumps effect cannot be ruled out. Although the lack of antibacterial activity is a limitation, hit compound 3 represents a fragment-sized starting point for the development of new compounds with increased DdlB inhibitory potency as well as antibacterial activity.
(§2) Minimum inhibitory concentrations (MICs) for 3 were determined by broth microdilution in Cation-adjusted Mueller-Hinton broth (MH) with TES, TREK Diagnostic Systems Ltd. against S. aureus ATCC 29213, E. coli ATCC 25922, E. coli N43 and E. coli D22. All of the experiments were performed in duplicate in 96-well plate format according to CLSI guidelines and European Committee for Antimicrobial Susceptibility Testing recommendations. The bacterial suspension of a specific bacterial strain was diluted with MH broth to obtain a final inoculum of 5 × 10^5 CFU/mL in the assay. Compound 3 dissolved in DMSO and inoculum were mixed together and incubated for 20 h at 35 °C. After incubation, the minimal inhibitory concentration (MIC) values were determined by visual inspection as the lowest dilution of compounds showing no turbidity. The MICs were determined against S. aureus (ATCC 29213), E. coli (ATCC 25922), E. coli N43, and E. coli D22 bacterial strains. D-Cycloserine was used as a positive control.

E. coli N43 = test: MIC by broth microdilution; type: cell-based; details: Escherichia coli, N43, 20 h
Protocol: as §1, §2

S. aureus ATCC 29213 = test: MIC by broth microdilution; type: cell-based
Protocol: as §1, §2

E. coli ATCC 25922 = test: MIC by broth microdilution; type: cell-based
Protocol: as §1, §2

DdlB = DdlB (Escherichia coli, UniProt P07862); test: Surface plasmon resonance, immobilised DdlB; type: binding, E. coli; details: steady-state affinity model, three titrations, 25 °C; read-out: apparent equilibrium dissociation constant KD
Protocol: Figure 2. Fragment hit 3 targeting DdlB. (A) Dose–response inhibition of DdlB for 3. (B) SPR analysis of 3 with the immobilised DdlB. 3 was injected across DdlB in serial dilutions ranging from 78.125 to 5000 µM for 40 s at a flow rate of 30 μL/min, and dissociation was followed for 40 s. […] (C) Data were fitted to the steady-state affinity model to obtain the apparent equilibrium dissociation constant (KD). KD values are the mean ± standard deviation of three titrations. (D) ATP (blue sticks) and D-Ala-D-Ala (white sticks) binding sites of DdlB (PDB ID: 4C5C) with the co-crystallised ligands. (E) Computational docking of 3 to the ATP-binding site using extra-precision Glide (blue sticks) and QM-Polarized Ligand Docking (orange sticks) (PDB ID: 4C5C).
Binding of 3 to DdlB was confirmed by an orthogonal biophysical assay, surface plasmon resonance (SPR). […]
The SPR measurements were performed at the Infrastructural Centre for Analysis of Molecular Interactions at the Department of Biology, University of Ljubljana on a Biacore T200 (GE Healthcare) at 25 °C. […] The data were analysed with the Biacore T200 Evaluation Software and KD was determined by fitting the data to the steady state affinity model. The average KDs and standard deviations were determined from three titrations of 3.

Compound: Cc1cccc(-c2ccnc3c(C(=O)O)cnn23)c1 [Compound 3, 7-(m-Tolyl)pyrazolo[1,5-a]pyrimidine-3-carboxylic acid]
- IC50 [1]: 168 µM
- Ki (DdlB from E. coli; Competitive (full) model, best fit, ATP varied, D-Ala 700 µM): 20.7 ± 4.5 µM
- Ki (DdlB from E. coli; Competitive (partial) model): 20.7 ± 5.2 µM
- Ki (DdlB from E. coli; Noncompetitive (full) model): 221 ± 21.7 µM
- inhibition mechanism (DdlB from E. coli; with respect to ATP): competitive inhibitor with respect to ATP
- remaining activity at 5000 µM [2]: 64%
- MIC (E. coli D22): > 128 µg/mL
- MIC (E. coli N43): > 128 µg/mL
- antibacterial activity (in words) (S. aureus ATCC 29213; S. aureus): no antibacterial activity
- MIC (S. aureus ATCC 29213; Staphylococcus aureus, ATCC29213, 20 h): > 128 µg/mL
- antibacterial activity (in words) (E. coli ATCC 25922; E. coli): no antibacterial activity
- MIC (E. coli ATCC 25922; Escherichia coli, ATCC25922, 20 h): > 128 µg/mL
- Kd (DdlB): 3.2 mM
